What was measured:
TOP-2 enzyme = biological target: T1, TOP-2 enzyme (Homo sapiens, UniProt P11388); assay: Topoisomerase II inhibitory assay (TopoGEN plasmid-based kit, DNA decatenation); format: biochemical; details: decatenation of DNA by TOP-2; read-out: IC50 (TOP-2 inhibition)
T1 construct: purchased TOPOGEN, CO, USA TG1001
Procedure: SP, RO, AZ, CL, and ER (as ethyl succinate) were provided from NODQCAR at a purity > 99.87%. Human mammary tumours, hepatocellular carcinoma (HepG2), and colorectal cancer (HCT-116) cell lines were obtained from VACSERA; Egypt. RPMI 1640 doped with 10% FBS was provided from VACSERA; Egypt. The inhibitory potential against TOP-2 was assessed by the Topo GEN assay kit (TOPOGEN, CO, USA).
Results were reported as IC50 and compared to DOX.

[1] = MTT antiproliferative assay, HCT-116; format: cell-based; details: human, HCT-116 colorectal carcinoma cells, HCT-116, MTT, read-out: IC50 (cytotoxicity)
Procedure: (§1) DOX was used as standard (920 µM).

[2] = MTT antiproliferative assay, HepG-2; format: cell-based; details: human, HepG-2 hepatocellular carcinoma cells, HepG-2, MTT, read-out: IC50 (cytotoxicity)
Procedure: as §1

in vitro = details: human, MCF-7 breast cancer cells

T1 sequence (P11388 whole entry): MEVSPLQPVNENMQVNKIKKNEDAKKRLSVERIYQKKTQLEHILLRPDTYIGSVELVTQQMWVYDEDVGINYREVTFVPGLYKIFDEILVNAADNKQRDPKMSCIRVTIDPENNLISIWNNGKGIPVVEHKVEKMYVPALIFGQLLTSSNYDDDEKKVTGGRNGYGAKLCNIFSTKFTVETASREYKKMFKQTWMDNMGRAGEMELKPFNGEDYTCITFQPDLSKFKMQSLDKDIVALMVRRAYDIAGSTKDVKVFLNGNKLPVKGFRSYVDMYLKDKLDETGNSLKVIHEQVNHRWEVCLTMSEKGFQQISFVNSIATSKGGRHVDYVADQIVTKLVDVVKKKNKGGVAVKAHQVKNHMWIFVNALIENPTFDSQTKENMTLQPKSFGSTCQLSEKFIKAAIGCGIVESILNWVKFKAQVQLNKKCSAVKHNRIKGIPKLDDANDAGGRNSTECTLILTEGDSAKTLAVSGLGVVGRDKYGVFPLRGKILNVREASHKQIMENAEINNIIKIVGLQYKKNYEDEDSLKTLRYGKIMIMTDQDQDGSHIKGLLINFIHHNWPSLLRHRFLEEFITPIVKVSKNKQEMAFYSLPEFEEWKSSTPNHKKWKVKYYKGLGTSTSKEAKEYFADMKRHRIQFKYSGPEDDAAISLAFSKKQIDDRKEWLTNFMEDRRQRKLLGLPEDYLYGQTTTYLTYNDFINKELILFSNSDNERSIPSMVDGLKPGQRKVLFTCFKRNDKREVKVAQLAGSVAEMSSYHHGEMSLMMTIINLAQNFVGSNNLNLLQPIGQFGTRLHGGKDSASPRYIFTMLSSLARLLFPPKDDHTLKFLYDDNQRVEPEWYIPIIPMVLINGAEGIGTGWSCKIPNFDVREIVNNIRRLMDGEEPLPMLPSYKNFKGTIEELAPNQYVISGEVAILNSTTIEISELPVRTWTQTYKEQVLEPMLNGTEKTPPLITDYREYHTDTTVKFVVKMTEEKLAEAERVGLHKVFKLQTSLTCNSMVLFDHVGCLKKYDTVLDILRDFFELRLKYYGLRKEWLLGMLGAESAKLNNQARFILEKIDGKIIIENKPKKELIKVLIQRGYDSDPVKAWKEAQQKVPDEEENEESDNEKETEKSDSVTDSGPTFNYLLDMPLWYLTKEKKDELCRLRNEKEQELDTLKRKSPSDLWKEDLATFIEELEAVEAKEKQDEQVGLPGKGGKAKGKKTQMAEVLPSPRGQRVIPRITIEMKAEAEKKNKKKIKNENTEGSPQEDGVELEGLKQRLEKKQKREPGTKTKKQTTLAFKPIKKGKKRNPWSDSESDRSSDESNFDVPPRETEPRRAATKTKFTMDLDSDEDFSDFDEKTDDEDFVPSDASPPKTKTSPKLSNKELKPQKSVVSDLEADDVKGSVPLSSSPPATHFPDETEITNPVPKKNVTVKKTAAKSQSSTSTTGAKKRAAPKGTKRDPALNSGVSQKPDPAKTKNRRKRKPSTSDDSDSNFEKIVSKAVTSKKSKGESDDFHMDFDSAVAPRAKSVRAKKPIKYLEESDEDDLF

| Structure (SMILES) | IC50 (TOP-2 enzyme) | IC50 at 24 h [1] | IC50 at 24 h [2] | IC50 at 24 h (in vitro) |
| --- | --- | --- | --- | --- |
| CC[C@H]1OC(=O)[C@H](C)[C@@H](O[C@H]2C[C@@](C)(OC)[C@@H](O)[C@H](C)O2)[C@H](C)[C@@H](O[C@@H]2O[C@H](C)C[C@H](N(C)C)[C@H]2O)[C@](C)(O)C[C@@H](C)CN(C)[C@H](C)[C@@H](O)[C@]1(C)O [AZ, azithromycin] | 36.1 ± 2.11 µM | 2.08 ± 0.05 µM | 32 ± 0.18 µM |  |
| CC[C@H]1OC(=O)[C@H](C)[C@@H](O[C@H]2C[C@@](C)(OC)[C@@H](O)[C@H](C)O2)[C@H](C)[C@@H](O[C@@H]2O[C@H](C)C[C@H](N(C)C)[C@H]2O)[C@](C)(OC)C[C@@H](C)C(=O)[C@H](C)[C@@H](O)[C@]1(C)O [CL, clarithromycin] | 25.6 ± 1.08 µM | 2.74 ± 0.42 µM | 14.8 ± 0.15 µM | 1.39 ± 0.15 µM |
| COc1cccc2c1C(=O)c1c(O)c3c(c(O)c1C2=O)C[C@@](O)(C(=O)CO)C[C@@H]3O[C@H]1C[C@H](N)[C@H](O)[C@H](C)O1 [DOX, doxorubicin] | 6.37 ± 0.38 µM | 1.6 ± 0.05 µM | 3.6 ± 0.07 µM | 0.49 ± 0.1 µM |
| CC[C@H]1OC(=O)[C@H](C)[C@@H](O[C@H]2C[C@@](C)(OC)[C@@H](O)[C@H](C)O2)[C@H](C)[C@@H](O[C@@H]2O[C@H](C)C[C@H](N(C)C)[C@H]2O)[C@](C)(O)C[C@@H](C)C(=O)[C@H](C)[C@@H](O)[C@]1(C)O [ER, erythromycin] | 11.6 ± 0.7 µM |  |  |  |
| CC[C@H]1OC(=O)[C@H](C)[C@@H](O[C@H]2C[C@@](C)(OC)[C@@H](O)[C@H](C)O2)[C@H](C)[C@@H](O[C@@H]2O[C@H](C)C[C@H](N(C)C)[C@H]2O)[C@](C)(O)C[C@@H](C)/C(=N\OCOCCOC)[C@H](C)[C@@H](O)[C@]1(C)O [RO, roxithromycin] | 13.1 ± 0.77 µM | 0.097 ± 0.024 µM | 32 ± 0.18 µM | 7.9 ± 0.79 µM |
| COC1C(O)CC(=O)OC(C)CC=CC=CC(OC2CCC(N(C)C)C(C)O2)C(C)CC(CC=O)C1OC1OC(C)C(OC2CC(C)(O)C(O)C(C)O2)C(N(C)C)C1O (centres unmarked) [SP, spiramycin] | 21.2 ± 1.19 µM | 12.2 ± 3.27 µM | 20.9 ± 1.33 µM | 0.67 ± 0.43 µM |

— article PMC9881673, “Investigating the potential anticancer activities of antibiotics as topoisomerase II inhibitors and DNA intercalators: in vitro, molecular docking, molecular dynamics, and SAR studies” (Journal of Enzyme Inhibition and Medicinal Chemistry, 2023)
